Article PMC11589570, “Critical assessment of LC3/GABARAP ligands used for degrader development and ligandability of LC3/GABARAP binding pockets” (Nature Communications, 2024)
Several values for one entry are separate records, joined by “and”; a condition that tells them apart may be missing. Identical values can stand only once.

Columns and labels:
Format in all cases: cell-based
RPE1 cells = test: Cell growth assay (IncuCyte confluence over 72 h); details: listed as AN2
How it was run: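 Phase confluence (% area covered by cells) imaged every 2 h for 72 h after compound addition; cells in DMEM/10% FBS, seeded 24 h before treatment. Controls were 0.1% DMSO, 250 nM Torin1 and 200 ng/mL Bafilomycin (final). Each point averages three wells.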

[1] = tested on: RPE-1 GFP-LC3B-RPF-LC3∆G reporter cell line; test: Autophagy flux assay; details: rebuttal letter
From the text: LC3/GABARAP in vitro, but no attempts are made to replicate the previously reported cellular activity of these compounds. It would be beneficial to know whether these compounds have any effect on autophagy in the authors’ hands, and therefore could act by alternative mechanisms, or whether they […]
Response: We were very concerned that the ligands used for ATTEC development might induce general toxicity in cell lines, as they are based on drugs used in oncology (such as the kinesin inhibitor 10O5) and the isoxazole scaffold often used in the development of multi-targeted kinase inhibitors. However, we have now investigated compounds 1-4 in autophagy flux assays using the RPE-1 GFP-LC3B-RPF-LC3∆G reporter cell line (single clone) as […]
reported in [PMID:37558952].
(RR_Figure 6). The authors of the first manuscript reporting these ligands [PMID: 31666698]
However, due to the potent activity of 8F20 on KIF11, which will have profound effects on cell trafficking and growth, and DCAF11 (AN1, [PMID: 38036533]), we find it unlikely that the effects on autophagy are due to LC3/GABARAP modulation. Due to the lack of target (LC3/GABARAP) binding in vitro and the […]
of this review but have excluded the data in the manuscript.
RR_figure 5: Autophagy flux measurement for 10O5 and AN2. No induction of autophagy or effects (right panels, assessed by Incucyte (Sartorius) life cell imaging) on cell growth was […]
RR_figure 6: Autophagy flux measurement for 8F20 and AN1 show changes in autophagy flux […]
It is not clear how many biological replicates have been performed. For example, the figure legends […]

U2OS cells = test: Cell growth assay (IncuCyte confluence over 72 h); set-up: key to U2OS cell growth: % of well area covered by cells (confluence)
How it was run: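 U2OS cells were grown in DMEM with 10% FBS for 24 h before treatment. Confluence was then tracked by IncuCyte phase imaging over 72 h and expressed as % of well area covered by cells. Each point is the average of three wells.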

## O=c1cc(-c2ccccc2)c2c(O)cc(O)cc2o1 [compound 2]
RPE1 cells; 100 nM, 0 h
  RPE1 cell growth: 20 and 12 and 15
RPE1 cells; 100 nM, 2 h
  RPE1 cell growth: 24 and 13 and 16
RPE1 cells; 100 nM, 4 h
  RPE1 cell growth: 26 and 14 and 18
RPE1 cells; 100 nM, 6 h
  RPE1 cell growth: 28 and 15 and 18
RPE1 cells; 100 nM, 8 h
  RPE1 cell growth: 30 and 15 and 19
RPE1 cells; 100 nM, 10 h
  RPE1 cell growth: 32 and 17
RPE1 cells; 500 nM, 0 h
  RPE1 cell growth: 22 and 20
RPE1 cells; 500 nM, 2 h
  RPE1 cell growth: 27 and 18 and 21
RPE1 cells; 500 nM, 4 h
  RPE1 cell growth: 29 and 19 and 24
RPE1 cells; 500 nM, 6 h
  RPE1 cell growth: 32 and 20 and 24
RPE1 cells; 500 nM, 8 h
  RPE1 cell growth: 35 and 21 and 25
RPE1 cells; 1 uM, 0 h
  RPE1 cell growth: 17 and 22 and 23
RPE1 cells; 1 uM, 2 h
  RPE1 cell growth: 19 and 26 and 23
RPE1 cells; 1 uM, 4 h
  RPE1 cell growth: 22 and 28 and 26
RPE1 cells; 1 uM, 6 h
  RPE1 cell growth: 22 and 31 and 24
RPE1 cells; 1 uM, 8 h
  RPE1 cell growth: 24 and 34 and 27
RPE1 cells; 1 uM, 10 h
  RPE1 cell growth: 25
RPE1 cells; 3 uM, 0 h
  RPE1 cell growth: 24 and 21 and 19
RPE1 cells; 3 uM, 2 h
  RPE1 cell growth: 30 and 22 and 21
RPE1 cells; 3 uM, 4 h
  RPE1 cell growth: 32 and 21 and 24
RPE1 cells; 3 uM, 6 h
  RPE1 cell growth: 36 and 22 and 26
RPE1 cells; 3 uM, 8 h
  RPE1 cell growth: 39 and 24 and 26
RPE1 cells; 3 uM, 10 h
  RPE1 cell growth: 39 and 27 and 28
RPE1 cells; 5 uM, 0 h
  RPE1 cell growth: 22 and 21
RPE1 cells; 5 uM, 2 h
  RPE1 cell growth: 28 and 21 and 24
RPE1 cells; 5 uM, 4 h
  RPE1 cell growth: 32 and 22 and 27
RPE1 cells; 5 uM, 6 h
  RPE1 cell growth: 35 and 24 and 29
RPE1 cells; 5 uM, 8 h
  RPE1 cell growth: 37 and 24 and 30
RPE1 cells; 5 uM, 10 h
  RPE1 cell growth: 38 and 26 and 32
RPE1 cells; 10 uM, 0 h
  RPE1 cell growth: 27 and 24 and 19
RPE1 cells; 10 uM, 2 h
  RPE1 cell growth: 31 and 27 and 22
RPE1 cells; 10 uM, 4 h
  RPE1 cell growth: 34 and 26 and 24
RPE1 cells; 10 uM, 6 h
  RPE1 cell growth: 37 and 25 and 26
RPE1 cells; 10 uM, 8 h
  RPE1 cell growth: 40 and 29 and 27
RPE1 cells; 10 uM, 10 h
  RPE1 cell growth: 42 and 31 and 30
[1]
  autophagy induction (autophagy flux): did not induce autophagy
  effects on cell growth (Incucyte life cell imaging): No induction of autophagy or effects
U2OS cells; 100 nM, time 0 h, listed as AN2
  U2OS cell growth: 19.1869 and 23.0588 and 16.4621
U2OS cells; 100 nM, time 2 h, listed as AN2
  U2OS cell growth: 26.3735 and 32.6169 and 19.3997
U2OS cells; 100 nM, time 4 h, listed as AN2
  U2OS cell growth: 24.7952 and 30.3994 and 22.748
U2OS cells; 100 nM, time 6 h, listed as AN2
  U2OS cell growth: 35.0609 and 34.7921 and 28.0047
U2OS cells; 500 nM, time 0 h, listed as AN2
  U2OS cell growth: 31.1146 and 31.1409 and 25.529
U2OS cells; 500 nM, time 2 h, listed as AN2
  U2OS cell growth: 37.2793 and 37.1141 and 29.374
U2OS cells; 500 nM, time 4 h, listed as AN2
  U2OS cell growth: 35.0603 and 34.3575 and 27.3746
U2OS cells; 500 nM, time 6 h, listed as AN2
  U2OS cell growth: 41.7549 and 43.2861 and 37.4758
U2OS cells; 500 nM, time 10 h
  U2OS cell growth: 32.7403
U2OS cells; 1 uM, time 0 h, listed as AN2
  U2OS cell growth: 36.01 and 37.7334 and 44.0066
U2OS cells; 1 uM, time 2 h, listed as AN2
  U2OS cell growth: 41.2565 and 41.9214 and 49.8222
U2OS cells; 1 uM, time 4 h, listed as AN2
  U2OS cell growth: 42.1175 and 41.7454 and 46.9501
U2OS cells; 1 uM, time 6 h, listed as AN2
  U2OS cell growth: 43.4595 and 43.9324 and 52.0735
U2OS cells; 1 uM, time 8 h, listed as AN2
  U2OS cell growth: 40.5517 and 44.5898 and 47.4794
U2OS cells; 1 uM, time 10 h, listed as AN2
  U2OS cell growth: 50.4894 and 50.7087 and 57.5735
U2OS cells; 1 uM, time 12 h, listed as AN2
  U2OS cell growth: 52.169
U2OS cells; 3 uM, time 0 h, listed as AN2
  U2OS cell growth: 52.9397 and 44.5639 and 41.1773
U2OS cells; 3 uM, time 2 h, listed as AN2
  U2OS cell growth: 56.1844 and 48.7409 and 42.4981
U2OS cells; 3 uM, time 4 h, listed as AN2
  U2OS cell growth: 62.7365 and 55.2773 and 40.1715
U2OS cells; 3 uM, time 6 h, listed as AN2
  U2OS cell growth: 59.0724 and 50.9181 and 40.9833
U2OS cells; 3 uM, time 8 h, listed as AN2
  U2OS cell growth: 54.8708 and 50.2365 and 43.1088
U2OS cells; 3 uM, time 10 h, listed as AN2
  U2OS cell growth: 58.4454 and 57.5785 and 49.1427
U2OS cells; 3 uM, time 12 h, listed as AN2
  U2OS cell growth: 58.133 and 56.9126
U2OS cells; 5 uM, time 0 h, listed as AN2
  U2OS cell growth: 43.5311 and 39.437 and 42.1256
U2OS cells; 5 uM, time 2 h, listed as AN2
  U2OS cell growth: 49.0024 and 44.0014 and 45.1119
U2OS cells; 5 uM, time 4 h, listed as AN2
  U2OS cell growth: 52.676 and 42.1033 and 45.9331
U2OS cells; 5 uM, time 6 h, listed as AN2
  U2OS cell growth: 55.9501 and 52.2867 and 48.2418
U2OS cells; 5 uM, time 8 h, listed as AN2
  U2OS cell growth: 48.351 and 54.4267 and 50.4706
U2OS cells; 5 uM, time 10 h, listed as AN2
  U2OS cell growth: 60.2478 and 59.3897 and 54.3527
U2OS cells; 10 uM, time 0 h, listed as AN2
  U2OS cell growth: 38.4245 and 29.6214 and 35.113
U2OS cells; 10 uM, time 2 h, listed as AN2
  U2OS cell growth: 42.0042 and 29.7485 and 38.264
U2OS cells; 10 uM, time 4 h, listed as AN2
  U2OS cell growth: 45.9814 and 34.6443 and 44.264
U2OS cells; 10 uM, time 6 h, listed as AN2
  U2OS cell growth: 49.3993 and 33.9992 and 45.6677
U2OS cells; 10 uM, time 8 h, listed as AN2
  U2OS cell growth: 46.5429 and 32.9506 and 41.2472
U2OS cells; 10 uM, time 10 h, listed as AN2
  U2OS cell growth: 49.5589 and 37.0749 and 46.636
